We go through 1 compound from ChEMBL document CHEMBL5725355, “Methods for treating seizure disorders and pain” (2017).

One may read the EC50 as the concentration at which the effect is half-maximal. A lower EC50 goes with higher potency in that assay.

Experiment [1] is described as follows: (§1) Voltage-Clamp Assay: All experiments were conducted at room temperature (22-24° C.) with an EPC-10 amplifier and Pulse software (HEKA, Lambrecht/Pfalz, Germany) in the whole-cell mode of the patch-clamp technique. Human embryonic kidney (HEK)-293 cell lines stably expressing hNav1.1, hNav1.5, hNav1.7 channels (generously provided by Dr. Christopher Lossin, University of California Davis), hNav1.4 (Frank Lehmann-Horn, University of Ulm), or hKv2.1 channels (James Trimmer, University of California Davis) were bathed in extracellular solution containing (in mM): 160 NaCl; 4.5 KCl; 1 MgCl2; 2 CaCl2; 10 HEPES [pH was adjusted to 7.4 using NaOH (310 mOsm)]. Pipettes were filled with intracellular solution containing (in mM): 145 KF; 2 MgCl2; 10 ethylene glycol tetraacetic acid; 10 HEPES (pH adjusted to 7.2 with KOH; 300 mOsm). Neuroblastoma N1E-115 cells (ATCC, Manassa, Va., USA) expressing Nav1.2 were patched with a CsF internal solution consisting of (in mM): 10 NaF; 110 CsF; 20 CsCl; 2 ethylene glycol tetraacetic acid; 10 HEPES (CsOH to pH 7.35; 300 mOsm). All pipette tip resistances were 2-4 MΩ. Series resistances of 3-10 MΩ were compensated 40-80%. All cells were voltage-clamped to a holding potential of −90 mV unless otherwise specified. The sampling frequency was 5 kHz. Na+ currents were elicited by 30-ms pulse to 0 mV from −90 mV applied every 10 s. […]. Background: In patch-clamp work, channel activity is measured electrically.

A short description of experiment [2]: as §1. The source holds these as a separate data set.
Experiment [3] is described as follows: as §1. The source holds these as a separate data set.
The nature of experiment [4]: as §1. This is another data set of the same source.
Experiment [5] is described as follows: as §1. This is another data set of the same source.
A short description of experiment [6]: as §1. This is another data set of the same source.

Turning to `Nc1nc2ccc(SC(F)(F)F)cc2s1`, the EC50 in experiment [1] was 2.2 µM; in experiment [2], 22.3 µM; in experiment [3] it was 5.8 µM; in experiment [4], 4.5 µM; in experiment [5], 7.9 µM; in experiment [6], 6.9 µM.
